From paper PMC12320299 (Chemical Science, 2025)

Key:
[1] = Reactivity with mixture of small biological nucleophiles by ESI-MS; type: physicochemical; conditions: for reaction with nucleophile mixture within 24 h: 50 μM; for Intact compound after 24 h, nucleophile mixture: equimolar Cys/Met/His/ATP/GTP, each 50 μM, ESI-MS
Experimental: Then, the compounds were analogously incubated with an equimolar mixture of cysteine, methionine, histidine, adenosine triphosphate and guanosine triphosphate to verify coordination preferences for amino acids over nucleotides. The reactivity of the four compounds was qualitatively similar, characterized by release of the NQ ligands and formation of mainly methionine and histidine-adducts with the metal(arene) (ESI, Fig. S13 ^†). No metalation of the nucleotides was observed. In contrast to other O,O-ligand systems, which are typically deactivated within minutes by ligand release under such conditions,[51,52] the N,O,O-tridentate organometallics studied here were characterized by increased stability. […] Again, the 3-Morph-NQ ligand was detected upon release from the metal centre, but hydrolysis dimers were not observed in the presence of bionucleophiles (ESI, Fig. S13 ^†). The reactivity of the compounds towards an equimolar concentration of the model protein ubiquitin was characterized by similar kinetic behaviours and reactivity (ESI, Fig. S14 ^†). […]
aliquot was used for stability testing of the respective test substance in aqueous solution. […]
2b were equimolarly added (50 µM) to a mixture of three amino acids and two nucleotides (Cys/Met/His/ATP/GTP; each 50 µM in aqueous solution) to test the interaction with small biological nucleophiles. All samples were mixed and incubated in a shaking incubator at 37 °C with speed set to 1000 rpm in the dark (Eppendorf ThermoMixer® C). After 1.5 h, 24 h and 72 h, 300 µL per sample were transferred to fresh reaction vessels, immediately frozen in liquid N2 and stored at –20 °C until measurement.
Samples were diluted to a concentration of 2.5 µM with an organic eluent (49.5% v/v acetonitrile, 49.5% v/v methanol,1% v/v H2O), except ubiquitin containing samples which were diluted to the same concentration with acidified H2O (0.1% v/v formic acid). The samples were then analysed by flow-injection using an amazon speed ETD ion trap (Bruker Daltonics) in the positive ion mode over 0.4 min using the following experimental parameters: HV capillary ±4.5 kV, end plate offset –500 V, dry temp 180 °C, nebulizer 3 bar, dry gas 5 L min-1, scan range m/z 200–1400, target mass m/z 900, flow rate 5 µL min-1. For ubiquitin containing samples, the scan range was adapted to m/z 300– 2200 with a target mass of m/z 1100. Data

[2] = system: SW480 colon carcinoma cell line; assay: MTT viability assay, SW480, 24 h; type: cell-based, human; conditions: for IC50: 24 h incubation; for potency compared to morpholine-analogues 1b and 2b: SW480, 24 h
Experimental: cultured in adherent T75 flasks (Sarstedt) in a humidified incubator at 37 °C and 5% CO2 (HeraCell150i, Thermo Fisher Scientific) and subcultured three times a week as the cells reached 75–80% growth area occupied. […]
Trypsin/EDTA solution (0.25%, Sigma-Aldrich) was used for detachment of all […]
SW480 human colon carcinoma cells (4.000 cells/well for the ethyl complexes; 4.000 and 10.000 cells/well for the morpholino complexes) were seeded in flat-bottom 96-well plates (Corning) and incubated at 37 °C for 24 h in a humidified incubator at 5% CO2 (HeraCell150i, Thermo Fisher Scientific). Stock solutions of the compounds were freshly prepared in DMSO […]
10 µM in complete cell culture medium for the ethyl compounds and 5, 10, 20, 40, 60, 80, 120, 160 µM for the morpholino compounds (final concentration of DMSO ≤0.4% v/v). The cells were incubated with the compounds for 24 h and 72 h. Then, the cell metabolism was colorimetrically determined using 3-(4,5-dimethylthiazol-2-yl)-2,5-diphenyl tetrazolium bromide (MTT). For this purpose, MTT reagent (20 µL, 5 mg mL-1 in phosphate-buffered saline, PBS) was added to each well and further incubated for 4 h. The medium was gently […]
removed and 100 µL DMSO was added to dissolve the formazan crystals. Photometric quantification was performed at 570 nm with a Multiskan Go 1510 photometer (Thermo Fisher […]
The absorbances were blank corrected and converted to relative proliferation. The IC50 values (concentration of 50% growth inhibition) were obtained using a sigmoidal fit of the experimental data and calculated as the mean ± standard deviation of at least three independent experiments, each in at least triplicates. […]
(each 3.000 cells/well) were seeded in 100 µL/well into flat-bottom 96-well plates (Starlab) and incubated at 37 °C for 24 h in a humidified incubator (Binder CB210) at 5% CO2. Complex 1a, bafilomycin or bortezomib were dissolved in DMSO and diluted in appropriate cell culture medium to respective concentrations. After 24 h of treatment, plates were measured by MTT assay as described above.
Colon carcinoma cells (SW480) were seeded into 12-well plates (CytoOne, Starlab) in densities of 1×10^5 cells per well (in 1 mL complete medium). After 24 h, cells were treated with […]

CT26 colon carcinoma = assay: Anti-tumour activity in subcutaneous CT26 allografts; type: in vivo, BALB/c mice; conditions: for tumour growth compared to vehicle-treated controls: i.p. over two weeks, 10 mg kg^−1 (1a, 2a), 30 mg kg^−1 (1b, 2b)
Experimental: Tumour inhibition of the four compounds was evaluated in subcutaneous CT26 allografts using BALB/c mice, since it represents an appropriate immune competent mouse model to study colon carcinoma. The compounds were administered intraperitoneally (i.p.) over two weeks at doses of 10 mg kg^−1 for the 3-Et-NQ complexes and 30 mg kg^−1 for the 3-Morph-NQ complexes. The different dosages were selected as maximal tolerable doses (MTDs) after an initial toxicity screen (data not shown).
Animals. All experiments were carried out with male Balb/c mice according to the regulation of the Ethics Committee for the Care and Use of Laboratory Animals at the Medical University Vienna (BMWF-2022-0.770.291), the guidelines from the Austrian Animal Science Association and the Federation of European Laboratory Animal Science Associations (FELASA). The animals were kept in a pathogen-free conditions, controlled environment with 12 h light–dark cycle with ad libitum access to food and water. Every procedure was done in a laminar airflow […]
Treatment. CT-26 cells ([…] in 50 μL serum-free medium) were injected subcutaneously (s.c.) into the right flank of ten– to eleven-week-old male Balb/c mice. Three days after cell injection, all compounds (dissolved in 10% DMSO in water) were administered […]
1b/2b. Regarding anticancer activity experiments, mice were treated on 5 consecutive days […]
over 2 weeks. […]

SW480 = system: SW480; parameters: method as in earlier work; conditions: 96 h incubation; ref 48 (ESI Ref. 1); cited from earlier work
CH1/PA-1 = system: CH1/PA-1; parameters: method as in Ref. 1 (ESI); conditions: 96 h incubation; ref Ref. 1 (ESI); cited from earlier work

## CCC1=C2[O][Ru][O]C2(n2cccn2)c2ccccc2C1=O.Cc1ccc(C(C)C)cc1 (stereo not shown) [Compound 1a, [(3-ethyl-4-oxo-(pyrazolyl)-dihydronaphthalene)(cymene)ruthenium(II)]]
[1]
  reaction with nucleophile mixture within 24 h: reacted nearly quantitatively
  Intact compound after 24 h, nucleophile mixture: 4%
[2]
  IC50: 620 ± 40 nM
  potency compared to morpholine-analogues 1b and 2b: > 30 times
CT26 colon carcinoma; 10 mg kg^−1 i.p. over two weeks, vs vehicle
  reduction in tumour volume on day 13: 44%
CT26 colon carcinoma; 10 mg kg^−1 i.p., five consecutive days
  tumour inhibition, 1-week experiment: statistically significant tumour inhibition
CT26 colon carcinoma
  tumour growth compared to vehicle-treated controls: significantly inhibit tumour growth
SW480
  IC50: 0.046 ± 0.007 µM
CH1/PA-1
  IC50: 62 ± 5 µM

## Cc1ccc(C(C)C)cc1.O=C1C(CN2CCOCC2)=C2[O][Ru][O]C2(n2cccn2)c2ccccc21 (stereo not shown) [Compound 1b]
[1]
  reaction with nucleophile mixture within 24 h: reacted nearly quantitatively
  Intact compound after 24 h, nucleophile mixture: 7%
[2]
  IC50: 38000 ± 5000 nM
CT26 colon carcinoma
  tumour growth compared to vehicle-treated controls: inactive
SW480
  IC50: 33 ± 2 µM
CH1/PA-1
  IC50: 150 ± 20 µM

## CCC1=C2[O][Os][O]C2(n2cccn2)c2ccccc2C1=O.Cc1ccc(C(C)C)cc1 (stereo not shown) [Compound 2a]
[1]
  Intact compound after 24 h, nucleophile mixture: 19%
[2]
  IC50: 1200 ± 100 nM
  potency compared to morpholine-analogues 1b and 2b: > 30 times
CT26 colon carcinoma
  tumour growth compared to vehicle-treated controls: significantly inhibit tumour growth
